From ChEMBL document CHEMBL1201862, “PubChem BioAssay data set” (2004)
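The compound was tested at five concentrations on cells cultured in 96-well plates, with a 48-hour exposure period. GI50 is the concentration that inhibits growth by half.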 The source made the active and inactive calls. Rule as the data show it: active = GI50 up to about 1.1 µM and inactive = higher.

Columns and labels:
Experiment in all cases: NCI tumour cell line growth inhibition, 48 h
[1] = system: UACC-257
[2] = system: RPMI-8226
[3] = system: 786-0
[4] = system: SK-MEL-5
[5] = system: PC-3
[6] = system: SK-OV-3
[7] = system: SF-268
[8] = system: SW-620
[9] = system: RXF 393
[10] = system: SF-539
[11] = system: U-251
[12] = system: BT-549
[13] = system: IGROV-1
[14] = system: MDA-MB-435
[15] = system: HOP-62
[16] = system: A549
[17] = system: ACHN
[18] = system: CAKI-1
[19] = system: HOP-92
[20] = system: SK-MEL-28
[21] = system: SF-295
[22] = system: HCC 2998
[23] = system: UO-31
[24] = system: MCF7
[25] = system: K562
[26] = system: NCI/ADR-RES
[27] = system: TK-10
[28] = system: HL-60
[29] = system: NCI-H460
[30] = system: HCT-116
[31] = system: COLO 205
[32] = system: NCI-H23
[33] = system: LOX IMVI
[34] = system: SN12C
[35] = system: KM12
[36] = system: OVCAR-3
[37] = system: OVCAR-5
[38] = system: CCRF-CEM
[39] = system: SNB-75
[40] = system: DU-145
[41] = system: SNB-19
[42] = system: HCT-15
[43] = system: MOLT-4
[44] = system: A498
[45] = system: NCI-H226
[46] = system: SK-MEL-2
[47] = system: MDA-N
[48] = system: OVCAR-8
[49] = system: HT-29
[50] = system: M14
[51] = system: OVCAR-4
[52] = system: MDA-MB-231
[53] = system: EKVX

**Q.** What does the source list for `COc1cc(CNc2nc3cc(N)cc(N)c3nc2-c2ccccc2)cc(OC)c1`?
**A.** GI50 [1]: 26.1 µM (inactive); GI50 [2]: 2.2 µM (inactive)

**Q.** Which results are given for `CNc1nnc(CNc2ccc(-c3nnc(NC)n3N)cc2)n1N`?
**A.** GI50 [3]: > 100 µM (inactive); GI50 [4]: > 100 µM (inactive); GI50 [5]: > 100 µM (inactive); GI50 [6]: > 100 µM (inactive); GI50 [1]: > 100 µM (inactive); GI50 [7]: > 100 µM (inactive); GI50 [8]: > 100 µM (inactive); GI50 [9]: > 100 µM (inactive); GI50 [10]: > 100 µM (inactive); GI50 [11]: > 100 µM (inactive); GI50 [12]: 12.4 µM (inactive); GI50 [13]: > 100 µM (inactive); GI50 [14]: > 100 µM (inactive); GI50 [15]: > 100 µM (inactive); GI50 [16]: > 100 µM (inactive); GI50 [17]: > 100 µM (inactive); GI50 [18]: > 100 µM (inactive); GI50 [19]: > 100 µM (inactive); GI50 [20]: > 100 µM (inactive); GI50 [21]: > 100 µM (inactive); GI50 [22]: < 0.01 µM (active); GI50 [23]: > 100 µM (inactive); GI50 [24]: > 100 µM (inactive); GI50 [25]: > 100 µM (inactive); GI50 [26]: > 100 µM (inactive); GI50 [27]: > 100 µM (inactive); GI50 [28]: 39.5 µM (inactive); GI50 [29]: > 100 µM (inactive); GI50 [30]: > 100 µM (inactive); GI50 [31]: > 100 µM (inactive); GI50 [32]: > 100 µM (inactive); GI50 [33]: > 100 µM (inactive); GI50 [34]: > 100 µM (inactive); GI50 [35]: > 100 µM (inactive); GI50 [36]: > 100 µM (inactive); GI50 [37]: > 100 µM (inactive); GI50 [38]: > 100 µM (inactive); GI50 [39]: > 100 µM (inactive); GI50 [40]: > 100 µM (inactive); GI50 [41]: > 100 µM (inactive); GI50 [42]: > 100 µM; GI50 [43]: > 100 µM (inactive); GI50 [44]: > 100 µM (inactive); GI50 [45]: > 100 µM (inactive); GI50 [46]: > 100 µM (inactive); GI50 [47]: > 100 µM (inactive); GI50 [48]: > 100 µM (inactive); GI50 [49]: > 100 µM (inactive); GI50 [50]: > 100 µM (inactive); GI50 [51]: > 100 µM (inactive); GI50 [52]: > 100 µM (inactive); GI50 [53]: > 100 µM (inactive)
